Measured values as given in paper PMC5923123, “In Vitro and In Vivo Efficacy of a Novel and Long-Acting Fungicidal Azole, PC1244, on Aspergillus fumigatus Infection” (Antimicrobial Agents and Chemotherapy, 2018).
Converted amounts (≈) assume the structure as drawn. “And” between values parts separate entries of the source, which are not always exact repeats. Equal entries are not always repeated. Where two headings read alike, the source gives them in different places.

Key:
[1] = test system: 96 clinically isolated A. fumigatus strains; experiment: EUCAST MIC against clinical isolates (visual); format: cell-based, Aspergillus fumigatus; details: 96 clinical isolates
Description: The antifungal activity of PC1244 was further evaluated against 96 clinical isolates (obtained from Saint Louis Hospital, Paris, France [50 isolates], and the North West England Mycology Reference Centre, Manchester, UK [46 isolates]). […] .

[2] = test system: Chaetomium globosum (ATCC 44699); experiment: CLSI MIC; format: cell-based; details: ATCC44699, 1 strain
[3] = test system: Aspergillus flavus (AFL8, NRRC3357); experiment: EUCAST MIC; format: cell-based; details: EUCAST, 2 strains, mean MIC, read-out: MIC
[4] = test system: Cladosporium argillaceum (ATCC 38013); experiment: CLSI MIC; format: cell-based; details: Rhizocladosporium argillaceum, ATCC38013, 1 strain
[5] = test system: A. fumigatus hyphae (NCPF2010); experiment: Persistence of action on A. fumigatus hyphae (resazurin microtiter assay); format: cell-based, Aspergillus fumigatus; details: for IC50: Aspergillus fumigatus, NCPF2010
Description: The duration of action of test agents within the hyphae of A. fumigatus has been determined using a resazurin-based microtiter assay ([28]).
The persistence of action of the test agents against A. fumigatus hyphae (NCPF2010) was determined as previously reported ([28]). […] The plates were incubated for exactly 20 min at 35°C in 5% CO2. After the incubation time had elapsed, all wells on the designated washout plate were aspirated and growth medium (100 μl/well) was added across the plate. […] Resazurin (0.04% diluted in growth medium) was added to all wells of both the nonwashout and washout plates (5 μl/well) to give a final concentration of 0.002% resazurin. The plates were incubated at 35°C in 5% CO2 for 16 h. Subsequently, the fluorescence in each well was measured at an excitation λ of 545 nm and an emission λ of 600 nm using a multiscanner (Clariostar; BMG, Buckinghamshire, UK). […] This study was conducted in quadruplicate in three independent experiments.

[6] = test system: Aspergillus flavus (ATCC 204304); experiment: CLSI MIC; format: cell-based; details: ATCC204304, CLSI, 1 strain, read-out: MIC
A. fumigatus (NCPF2010) [7] = experiment: Fungicidal activity by subculture on agar (CFU-MFC)
Description: After the MIC for each compound was recorded, fungicidal activity was determined as previously described ([35]). Briefly, medium from each well (100 μl/well) was removed after pipetting up and down five times and subcultured onto 4% Sabouraud dextrose agar plates. The plates were incubated (35°C with ambient air) for 48 h, and the numbers of CFU were counted for each compound concentration. The minimum fungicidal concentration (MFC) was determined as the lowest compound concentration yielding 3 colonies or less.

[8] = test system: Lichtheimia corymbifera (ATCC 7909); experiment: CLSI MIC; format: cell-based; details: ATCC7909, 1 strain
[9] = test system: Mucor circinelloides (ATCC 8542); experiment: CLSI MIC; format: cell-based; details: ATCC8542, 1 strain
A. fumigatus (NCPF2010) [10] = experiment: Fungicidal activity by XTT colorimetric method (XTT-MFC)
Description: In addition, the fungicidal effect of each compound was determined using 2,3-bis-(2-methoxy-4-nitro-5-sulfophenyl)-2H-tetrazolium-5-carboxanilide salt (XTT)-based quantitative colorimetric analysis (XTT-MFC).
After the removal of medium for culture-based testing of the number of CFU, the contents of all wells were carefully aspirated and warm PBS (200 μl/well) was added. After gentle agitation, the contents of all wells were aspirated and fresh medium was added (200 μl/well). The plates were incubated (35°C with ambient air) for 24 h. […] The plates were incubated (35°C with ambient air) for 2 h, after which the plates were agitated gently for 2 min. The optical density (OD) of each well at 450 nm and 620 nm was measured using a multiscanner (Clariostar; BMG, Buckinghamshire, UK).

[11] = test system: ergosterol production in A. fumigatus (NCPF2010); experiment: A. fumigatus cell-based ergosterol assay; details: for IC50: Aspergillus fumigatus
Description: CYP51 enzyme-inhibitory activity was also measured in a cell-based assay, as described previously ([28]). In this plate-based ergosterol quantification experiment, oxidation of ergosterol by cholesterol oxidase was determined by observing the conversion of the weakly fluorescent resazurin to the highly fluorescent resorufin and was normalized using crystal violet staining (indicating cell number).
After incubation for 24 h at 35°C, the medium was removed from all wells and replaced with reaction buffer (catalog number A12216; Amplex red cholesterol assay kit; Thermo Fisher) and Amplex red solution. The plates were incubated for 30 min at 37°C with protection from light, after which the fluorescence was quantified using a spectrophotometer. The medium was removed from all wells and replaced with crystal violet solution (1%, vol/vol), and the plates were incubated at room temperature on a shaker for 30 min. The plates were washed three times with phosphate-buffered saline (PBS), and sodium dodecyl sulfate solution (0.1%, vol/vol) was added across the plate to lyse the cells. After incubation at room temperature for 1 h, the absorbance (OD) at 590 nm was measured using a spectrophotometer.

[12] = test system: Trichophyton rubrum (ATCC 10218); experiment: CLSI MIC; format: cell-based; details: ATCC10218, 1 strain
[13] = test system: Aspergillus niger (ATCC 1015); experiment: EUCAST MIC; format: cell-based; details: ATCC1015, EUCAST, 1 strain, read-out: MIC
[14] = test system: Penicillium citrinum (ATCC 9849); experiment: CLSI MIC; format: cell-based; details: ATCC9849, 1 strain
[15] = test system: BEAS2B cells infected with A. fumigatus; experiment: Persistence of action in bronchial epithelial cells (galactomannan in supernatant); format: cell-based, Aspergillus fumigatus; details: Aspergillus fumigatus, BEAS-2B, GM readout
Description: In a second system, the persistence of the action of the same three agents on A. fumigatus-infected bronchial epithelial cells was quantified using galactomannan (GM) production in the culture supernatant as an index of fungal growth. BEAS2B cells were infected with A. fumigatus, and the effects of a 24-h washout period (medium change) prior to infection were examined.
The persistence of action of the test agents was evaluated in immortalized bronchial epithelial cells (BEAS2B cells) as previously reported ([28]). […] The plate was incubated for exactly 1 h at 37°C in 5% CO2. After the incubation time had elapsed, all wells on the washout plate were aspirated and growth medium (100 μl/well) was added across the plate. […] The plate was incubated for exactly 1 h at 37°C in 5% CO2, after which A. fumigatus conidia were added across both plates at a final concentration of 1 × 10^3/well. […] This study was conducted in triplicate in three independent experiments.

[16] = test system: Candida albicans (20240.047, ATCC 10231); experiment: CLSI MIC; format: cell-based; details: ATCC10231, CLSI, 2 strains, mean MIC, MIC = 50% inhibition of fungal growth, read-out: MIC
A. fumigatus AF91 = experiment: EUCAST broth microdilution growth inhibition (OD 530 nm, 384-well); format: cell-based; details: Aspergillus fumigatus, strain AF91 (ITC-resistant), 48 h
Description: (§1) The antifungal activities of the test compounds against A. fumigatus strains (itraconazole [ITC]-susceptible strains NCPF2010, AF294, and AF293; ITC-resistant strains AF72 and AF91) were calculated from growth curves generated by spectrophotometric analysis and compared to the activities against positive and negative controls.

A. fumigatus AF293 = experiment: as above; format: cell-based; details: Aspergillus fumigatus, strain AF293 (ITC-susceptible), 48 h
Description: as §1

A. fumigatus NCPF2010 = experiment: as above; format: cell-based; details: Aspergillus fumigatus, strain NCPF2010 (ITC-susceptible), 48 h, range tested 0.002 to 1 μg/ml
Description: as §1

A. fumigatus AF294 = experiment: as above; format: cell-based; details: Aspergillus fumigatus, strain AF294 (ITC-susceptible), 48 h
Description: as §1

A. fumigatus AF72 = experiment: as above; format: cell-based; details: Aspergillus fumigatus, strain AF72 (ITC-resistant), 48 h
Description: as §1

Cc1cc(N2CCN(c3ccc(C(=O)N[C@H]4CCCC[C@@H]4O)cc3)CC2)ccc1OC[C@@H]1CO[C@@](Cn2cncn2)(c2ccc(F)cc2F)C1 [PC1244, 4-(4-(4-(((3R,5R)-5-((1H-1,2,4-triazol-1-yl)methyl)-5-(2,4-difluorophenyl)tetrahydrofuran-3-yl)methoxy)-3-methylphenyl)piperazin-1-yl)-N-((1S,2S)-2-hydroxycyclohexyl)benzamide]
fold more potent than VRC on the basis of geometric mean MICs [1]: 6.2 fold | MIC Range ([1]; visual): 0.008 to 2 µg/mL | MIC50 ([1]; Aspergillus fumigatus, visual): 0.032 µg/mL (≈ 0.0466 µM) | MIC90 ([1]; Aspergillus fumigatus, visual): 0.5 µg/mL (≈ 0.728 µM) | MIC ([1]; Aspergillus fumigatus, visual, read-out: MIC Geometric mean): 0.067 µg/mL (≈ 0.0976 µM) | MIC ([1]; Aspergillus fumigatus, visual, read-out: MIC Mode): 0.016 µg/mL (≈ 0.0233 µM) | MIC [2]: 0.063 µg/mL (≈ 0.0917 µM) | MIC [3]: 0.38 µg/mL (≈ 0.553 µM) | MIC [4]: 0.25 µg/mL (≈ 0.364 µM) | Hyphae Fold change (washout vs no washout) [5]: 2.4 fold and 2.41 fold | IC50 ([5]; 20 min contact, washout, 16 h incubation, read-out: Hyphae IC50 Washout): 0.00025 µg/mL (≈ 0.000364 µM) | IC50 ([5]; continuous contact 16 h, read-out: Hyphae IC50 No washout): 0.00011 µg/mL (≈ 0.00016 µM) | fold more potent than POS at inhibiting hyphal growth ([5]; no washout IC50): 4.1 fold | fold more potent than VRC at inhibiting hyphal growth ([5]; no washout IC50): 100 fold | MIC [6]: 0.25 µg/mL (≈ 0.364 µM) | fold stronger than POS (CFU-MFC) (A. fumigatus (NCPF2010) [7]): 2 fold | fold stronger than VRC (CFU-MFC) (A. fumigatus (NCPF2010) [7]): 8 fold | MFC (A. fumigatus (NCPF2010) [7]; Aspergillus fumigatus, NCPF2010, 48 h, read-out: CFU-MFC): 2 µg/mL (≈ 2.91 µM) | CFU-MFC/MIC ratio (A. fumigatus (NCPF2010) [7]; NCPF2010): 32 | MIC [8]: 1 µg/mL (≈ 1.46 µM) | MIC [9]: 2 µg/mL (≈ 2.91 µM) | fold more potent than POS (XTT-MFC) (A. fumigatus (NCPF2010) [10]): 3 fold | fold more potent than VRC (XTT-MFC) (A. fumigatus (NCPF2010) [10]): > 229 fold | MFC (A. fumigatus (NCPF2010) [10]; Aspergillus fumigatus, NCPF2010, read-out: XTT-MFC): 0.14 µg/mL (≈ 0.204 µM) | inhibition at 1 µg/mL (A. fumigatus (NCPF2010) [10]; Aspergillus fumigatus, NCPF2010, read-out: maximum inhibition of fungicidal activity): 99.9% | XTT-MFC/MIC ratio (A. fumigatus (NCPF2010) [10]; NCPF2010): 2.2 | XTT-MFC (A. fumigatus (NCPF2010) [10]; NCPF2010, cutoff 99% inhibition): 0.14 ± 0.0058 µg/mL | fold more potent than POS at inhibiting ergosterol production [11]: 2.2 fold | fold more potent than VRC at inhibiting ergosterol production [11]: 12 fold | IC50 ([11]; NCPF2010, 24 h, read-out: IC50, inhibition of ergosterol production): 0.0055 µg/mL | IC50 ([11]; NCPF2010, read-out: 50% inhibitory concentration, ergosterol synthesis): 8 nM | MIC [12]: 0.031 µg/mL (≈ 0.0451 µM) | MIC [13]: 0.5 µg/mL (≈ 0.728 µM) | MIC [14]: 0.5 µg/mL (≈ 0.728 µM) | IC50 ([15]; 1 h contact before infection, no washout, read-out: BEAS2B cells IC50 No washout): 0.0034 µg/mL (≈ 0.00495 µM) | IC50 ([15]; 1 h contact then 24-h washout before infection, read-out: BEAS2B cells IC50 Washout): 0.018 µg/mL (≈ 0.0262 µM) | MIC [16]: < 0.0078 µg/mL | IC50 (A. fumigatus AF91): 0.0037 µg/mL (≈ 0.00539 µM) | IC90 (A. fumigatus AF91): 0.024 µg/mL (≈ 0.0349 µM) | IC50 (A. fumigatus AF293): 0.0026 µg/mL (≈ 0.00379 µM) | IC90 (A. fumigatus AF293): 0.012 µg/mL (≈ 0.0175 µM) | IC50 (A. fumigatus NCPF2010): 0.0017 µg/mL (≈ 0.00248 µM) | IC90 (A. fumigatus NCPF2010): 0.0022 µg/mL (≈ 0.0032 µM) | IC50 (A. fumigatus AF294): 0.0021 µg/mL (≈ 0.00306 µM) | IC90 (A. fumigatus AF294): 0.0041 µg/mL (≈ 0.00597 µM) | IC50 (A. fumigatus AF72): 0.0024 µg/mL (≈ 0.00349 µM) | IC90 (A. fumigatus AF72): 0.026 µg/mL (≈ 0.0379 µM)
